As a reminder, the Ki is the dissociation constant of the complex between target and ligand, obtained from inhibition or displacement. For orientation: IC50 means the concentration that inhibits the measured activity by half.

Structures are written as SMILES.

The values that follow come from article PMC11272821, “Mechanistic safety assessment via multi-omic characterisation of systemic pathway perturbations following in vivo MAT2A inhibition” (Archives of Toxicology, 2024).

Series [1] concerns HCT116 MTAP KO cells. Description: HCT116 cell SDMA assay, MTAP KO. The class given is cell-based. The text has this: The structure and in vitro properties of the compound are shown in Table 1 together with potency in the HCT116 isogenic cell line (MTAP WT and KO) and in the MAT2A biochemical assay (SAM endpoint).
Series [2] in a line: LogD (pH 7.4). It counts as physicochemical.
Series [3] concerns SAM. Description: Targeted LC–MS of SAM in plasma, liver, brain and heart. The class given is in vivo, rat. Here is the method: (§1) SAM and methionine levels were quantified in plasma samples and tissues using Ultra Performance Liquid Chromatography (UPLC) coupled with quantitative MS in ESI positive ion mode as described in Supplementary M&M.
(§2) For LCMS analysis, standard curves were spiked to give a calibrated range of 1.0 – 1000 nM for SAM and 1.0 – 2000 for methionine. 5 µL of standard spike solution was added to 45 µL of ACN/MeOH/H2O (40/40/20 v/v/v) and 2.5 µL of deuterated citrulline is added as an internal standard. A further calibration curve was prepared with 5 µL blank mouse plasma, 5 µL of standard and 40 µL of 40:40:20 Acetonitrile:Methanol:0.5% formic acid (Aq) with 2.5 µL of deuterated citrulline was used to investigate matrix suppression effects. Blank plasma was also diluted 1:10 with ACN/MeOH/H2O (40/40/20 v/v/v) and was also analysed to establish systemic biomarker levels.
(§3) Metabolomic sample preparation and analysis. Tissue samples (liver, brain, heart) were extracted with 1 mL of ACN/MeOH/H2O 40/40/20 v/v/v per 100 mg material in a PrecellysCK28K-2 mL tube. Tissues were homogenised/extracted in 3x20 sec shake at 5500 rpm and centrifuged for 5 min at 10,621g. After centrifugation a maximum of 800 µL clear supernatant was transferred to cryovials and the same amount of extraction solvent used in the first step was added to tissue precipitate. Extraction procedure was repeated as above and clear supernatants combined in the same cryovial and vial labelled as polar metabolite extract. On the remaining tissue pellet 1ml (per100mg tissue material) of Butanol/MeOH 3/1v/v was added and the above extraction sequence applied. Resulted clear supernatant transferred to a clean cryovial and labelled as lipid extract. All samples kept at the lowest available temperature (0 °C) throughout the extraction process and stored at -80 °C until further analysis.

In series [4] the test system is methionine. Briefly: Targeted LC–MS of methionine in plasma, liver, brain and heart. It counts as in vivo, rat. Particulars: 30 mg/kg BID. How it is done: as §1, §2, §3
In series [5] the test system is rat liver transcriptome. Briefly: Liver transcriptomics. The class given is in vivo. Here is the method:
Total RNA was purified from liver samples with RNAdvance Tissue™ kit by Beckman Coulter Life Sciences according to manufacturer’s instructions. The method was carried out in an automated robotic solution with Biomek i7 Hybrid™. The concentration and quality of isolated RNA molecules were measured applying parallel capillary electrophoresis using Agilent Fragment Analyzer 5300 (DNF-471-33-SS Total RNA 15nt). The data were analysed in ProSize data analysis software to derive the concentration and RNA quality numbers (RQN) for individual samples.
The double-stranded cDNA obtained with Poly (A)-mRNA enrichment (500 ng total RNA input) was subjected to library preparation using KAPA Hyper Prep Kit (Kapa Biosystems, MA, USA) according to manufacturer’s protocol. The libraries were pooled in a single library and were sequenced on an Illumina NovaSeq6000 with a v1.5 SP 100 cycle kit as paired-end reads to PE51bp. The sequencing runs were carried out according to the manufacturer’s instructions.

Series [6] addresses T1, 5-HT2B receptor (Homo sapiens, UniProt P41595).
T1 construct: Eurofins
Description: Radioligand binding assay. Here is the method: (§4) Secondary pharmacology assays were performed at Eurofins using standard experimental techniques against a total of 86 targets across a broad pharmacological space. Assay details along with experimental protocols are described at https://www.eurofinsdiscoveryservices.com. […] Assays measuring substrate turnover or phosphorylation by isolated proteins were used for kinase and enzyme targets, allowing direct determination of the mode of action of the compounds. […] Assays were run in eight points concentration response mode with half log dilutions and IC50, EC50 or Ki (Cheng and Prusoff [1973]) values determined.

The target in series [7] is T2, A2A adenosine receptor (Homo sapiens, UniProt P29274).
T2 construct: Eurofins
Description: Radioligand binding assay. How it is done:
as §4

Series [8] deals with T3, CB1 cannabinoid receptor (Homo sapiens, UniProt P21554).
T3 construct: purchased Eurofins
Description: Radioligand binding assay. Here is the method:
as §4

Series [9] has as its target T4, NK1 neurokinin receptor (Homo sapiens, UniProt P25103).
T4 construct: Eurofins
Briefly: Radioligand binding assay. How it is done:
as §4

Series [10] deals with T5, SST4 somatostatin receptor (Homo sapiens, UniProt P31391).
T5 construct: Eurofins
Briefly: Radioligand binding assay. Here is the method:
as §4

Series [11] addresses T6, κ opioid receptor (Homo sapiens, UniProt P41145).
T6 construct: Eurofins
Description: Radioligand binding assay. Here is the method:
as §4

Series [12] addresses T7, Adenosine Transporter (Homo sapiens, UniProt Q99808).
T7 construct: Eurofins
Description: Functional assay. It counts as cell-based. Here is the method: as §4

Series [13] addresses hERG (Homo sapiens, UniProt Q12809). Briefly: hERG safety assay. The class given is cell-based. The following applies: Full curve. From the text:
(§5) Full curve IC50 (µM) for hERG (human ether-a-go-go-related gene) and the cardiac ion channel panel (sodium and potassium ion channels; Nav1.5, IKs, Kv4.3), along with the L-type Calcium channel (Cav-1.2 Ver; verapamil, DIL; diltiazem), HepG2 C3A 3D spheroids, HepG2 C3A (2D cultures in glucose or galactose media), and THP1 cytotoxicity.
On the technique in general: The hERG channel carries a current that helps repolarise heart muscle cells.

Series [14] has as its system THP-1. Description: THP1 cytotoxicity. It counts as cell-based. Particulars: read-out: THP-1 Cytotox IC50.
Source text: as §5

On the set-up of series [15]: method as in Atkinson et al. [2024]. The following applies: ref Atkinson et al. [2024]; cited from earlier work.

T4 sequence (P25103 whole entry): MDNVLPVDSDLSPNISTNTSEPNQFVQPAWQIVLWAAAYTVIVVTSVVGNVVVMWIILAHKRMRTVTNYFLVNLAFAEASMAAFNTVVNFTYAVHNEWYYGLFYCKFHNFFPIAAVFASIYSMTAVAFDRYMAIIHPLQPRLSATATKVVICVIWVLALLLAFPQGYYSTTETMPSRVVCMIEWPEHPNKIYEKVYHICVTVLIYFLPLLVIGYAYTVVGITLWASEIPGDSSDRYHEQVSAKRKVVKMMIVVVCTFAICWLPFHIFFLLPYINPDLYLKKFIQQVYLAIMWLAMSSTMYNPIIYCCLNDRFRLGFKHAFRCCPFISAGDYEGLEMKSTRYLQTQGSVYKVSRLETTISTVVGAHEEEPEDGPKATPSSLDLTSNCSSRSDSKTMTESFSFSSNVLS
Chain of hERG (Q12809 whole entry): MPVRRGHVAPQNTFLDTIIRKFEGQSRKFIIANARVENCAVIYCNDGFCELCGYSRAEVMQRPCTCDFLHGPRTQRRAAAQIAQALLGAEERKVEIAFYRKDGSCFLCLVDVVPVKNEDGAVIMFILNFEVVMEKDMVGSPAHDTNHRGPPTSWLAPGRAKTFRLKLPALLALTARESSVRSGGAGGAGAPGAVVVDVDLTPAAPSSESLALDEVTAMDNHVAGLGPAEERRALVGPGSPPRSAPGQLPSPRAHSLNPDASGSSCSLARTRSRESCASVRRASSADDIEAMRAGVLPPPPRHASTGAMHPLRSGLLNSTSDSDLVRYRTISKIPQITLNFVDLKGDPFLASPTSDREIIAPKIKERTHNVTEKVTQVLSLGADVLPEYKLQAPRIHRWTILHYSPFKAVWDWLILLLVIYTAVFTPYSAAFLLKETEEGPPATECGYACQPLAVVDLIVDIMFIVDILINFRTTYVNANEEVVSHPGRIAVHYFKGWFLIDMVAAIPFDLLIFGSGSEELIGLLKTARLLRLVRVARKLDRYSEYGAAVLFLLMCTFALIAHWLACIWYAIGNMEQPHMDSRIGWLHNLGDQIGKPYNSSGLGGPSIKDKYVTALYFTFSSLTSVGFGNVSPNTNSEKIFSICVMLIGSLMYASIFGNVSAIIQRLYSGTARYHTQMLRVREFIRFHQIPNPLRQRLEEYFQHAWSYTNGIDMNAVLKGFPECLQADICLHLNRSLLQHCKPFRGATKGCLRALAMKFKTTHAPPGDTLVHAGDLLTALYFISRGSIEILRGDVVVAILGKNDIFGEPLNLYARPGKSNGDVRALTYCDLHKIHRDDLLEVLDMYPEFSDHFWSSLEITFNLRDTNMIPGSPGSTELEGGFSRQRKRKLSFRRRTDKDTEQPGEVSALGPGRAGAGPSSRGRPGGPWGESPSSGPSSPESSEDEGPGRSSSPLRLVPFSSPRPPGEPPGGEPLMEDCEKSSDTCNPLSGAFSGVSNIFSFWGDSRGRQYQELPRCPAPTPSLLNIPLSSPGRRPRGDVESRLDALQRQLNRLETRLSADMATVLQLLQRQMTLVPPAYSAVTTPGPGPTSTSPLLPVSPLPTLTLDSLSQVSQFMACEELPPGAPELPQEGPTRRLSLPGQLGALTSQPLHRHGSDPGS
T3 sequence (P21554 whole entry): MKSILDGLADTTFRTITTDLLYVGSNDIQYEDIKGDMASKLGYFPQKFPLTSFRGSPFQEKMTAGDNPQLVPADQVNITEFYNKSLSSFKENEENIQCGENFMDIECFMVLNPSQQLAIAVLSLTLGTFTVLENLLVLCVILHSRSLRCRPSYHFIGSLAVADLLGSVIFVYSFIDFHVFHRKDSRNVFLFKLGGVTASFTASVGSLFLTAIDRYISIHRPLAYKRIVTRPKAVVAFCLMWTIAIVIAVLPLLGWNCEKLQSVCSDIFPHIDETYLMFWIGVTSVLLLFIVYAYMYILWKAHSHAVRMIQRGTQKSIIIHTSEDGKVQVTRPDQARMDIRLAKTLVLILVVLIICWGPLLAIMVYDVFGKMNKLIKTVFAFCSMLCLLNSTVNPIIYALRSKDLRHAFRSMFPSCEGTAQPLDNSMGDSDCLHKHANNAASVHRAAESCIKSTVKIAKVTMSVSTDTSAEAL
T7 sequence (Q99808 2-456 limits assumed): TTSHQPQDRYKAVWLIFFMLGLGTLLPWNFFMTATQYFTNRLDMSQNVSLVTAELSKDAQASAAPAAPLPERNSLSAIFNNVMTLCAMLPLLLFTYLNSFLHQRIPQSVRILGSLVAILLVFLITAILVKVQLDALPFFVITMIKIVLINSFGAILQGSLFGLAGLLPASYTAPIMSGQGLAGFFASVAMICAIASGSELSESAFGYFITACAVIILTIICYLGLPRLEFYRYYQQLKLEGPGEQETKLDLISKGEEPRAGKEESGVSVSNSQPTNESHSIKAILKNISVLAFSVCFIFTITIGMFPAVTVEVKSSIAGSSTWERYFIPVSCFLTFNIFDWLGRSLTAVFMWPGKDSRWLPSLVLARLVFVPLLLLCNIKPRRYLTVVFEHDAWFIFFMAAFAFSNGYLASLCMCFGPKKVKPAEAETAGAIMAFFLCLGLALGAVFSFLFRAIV
T1 sequence (P41595 whole entry): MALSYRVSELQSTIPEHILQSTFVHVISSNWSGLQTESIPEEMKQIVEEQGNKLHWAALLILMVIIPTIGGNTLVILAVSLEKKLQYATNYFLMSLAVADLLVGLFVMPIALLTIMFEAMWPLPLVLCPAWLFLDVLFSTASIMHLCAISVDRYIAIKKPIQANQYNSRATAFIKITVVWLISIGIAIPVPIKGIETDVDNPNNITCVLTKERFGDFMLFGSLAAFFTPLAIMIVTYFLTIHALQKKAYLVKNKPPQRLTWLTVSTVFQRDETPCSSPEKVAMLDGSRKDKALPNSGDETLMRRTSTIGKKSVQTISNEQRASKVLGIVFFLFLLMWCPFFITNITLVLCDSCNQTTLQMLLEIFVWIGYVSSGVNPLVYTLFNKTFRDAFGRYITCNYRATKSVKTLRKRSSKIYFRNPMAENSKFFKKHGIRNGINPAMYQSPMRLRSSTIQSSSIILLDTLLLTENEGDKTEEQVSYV
T5 sequence (P31391 whole entry): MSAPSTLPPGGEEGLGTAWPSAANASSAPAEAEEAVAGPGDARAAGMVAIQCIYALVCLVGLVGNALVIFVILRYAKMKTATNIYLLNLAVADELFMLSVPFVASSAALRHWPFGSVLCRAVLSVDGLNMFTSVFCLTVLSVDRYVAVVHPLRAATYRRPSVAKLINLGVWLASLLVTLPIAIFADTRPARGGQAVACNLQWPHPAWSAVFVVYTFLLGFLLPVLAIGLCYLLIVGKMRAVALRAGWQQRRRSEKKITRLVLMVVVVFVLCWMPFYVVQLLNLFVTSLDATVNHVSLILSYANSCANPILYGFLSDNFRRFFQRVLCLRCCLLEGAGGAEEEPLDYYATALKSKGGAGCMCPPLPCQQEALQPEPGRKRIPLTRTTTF
T2 sequence (P29274 whole entry): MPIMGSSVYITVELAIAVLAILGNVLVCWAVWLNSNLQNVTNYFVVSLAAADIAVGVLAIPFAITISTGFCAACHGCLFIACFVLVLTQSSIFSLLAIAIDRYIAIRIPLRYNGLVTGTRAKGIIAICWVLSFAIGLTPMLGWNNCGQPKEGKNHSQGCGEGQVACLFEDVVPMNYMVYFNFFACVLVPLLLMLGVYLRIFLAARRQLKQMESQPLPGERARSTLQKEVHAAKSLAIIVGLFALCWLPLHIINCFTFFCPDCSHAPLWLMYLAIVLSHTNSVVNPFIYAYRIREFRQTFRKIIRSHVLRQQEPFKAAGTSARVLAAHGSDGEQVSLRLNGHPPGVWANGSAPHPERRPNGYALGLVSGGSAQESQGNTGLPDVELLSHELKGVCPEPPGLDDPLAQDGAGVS
T6 sequence (P41145 whole entry): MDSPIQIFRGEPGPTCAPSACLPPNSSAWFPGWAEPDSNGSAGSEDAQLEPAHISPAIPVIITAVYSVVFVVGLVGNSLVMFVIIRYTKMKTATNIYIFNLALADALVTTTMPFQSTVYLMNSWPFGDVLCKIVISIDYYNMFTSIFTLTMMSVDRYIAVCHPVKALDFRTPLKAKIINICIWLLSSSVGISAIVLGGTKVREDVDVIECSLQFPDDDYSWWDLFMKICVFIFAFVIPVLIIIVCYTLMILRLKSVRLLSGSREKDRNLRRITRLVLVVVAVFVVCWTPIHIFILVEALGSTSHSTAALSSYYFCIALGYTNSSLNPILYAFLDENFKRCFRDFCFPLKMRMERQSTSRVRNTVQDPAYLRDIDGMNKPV

Consider `Cn1cc2cc(-c3cc4[nH]nc(C5CC5)c4n(-c4ccc(OC(F)F)cc4)c3=O)ccc2n1` [AZ’9567], for which, in series [1], the “HCT116 cell SDMA pIC50 MTAP KO” value came out at 8.6. In addition, the “LogD (pH 7.4)” value in series [2] is listed as 3.4. The “plasma SAM decrease, lower than the vehicle controls” value in [3] (30 mg/kg BID) worked out at 70%. In addition, the “brain SAM change” value in series [3] (3 and 10 mg/kg BID) is listed as “no significant change”. Further, the “heart SAM decrease” value in [3] (all dose levels) is given as around 90%. Also, in [3] (all doses), the “liver SAM decrease” value is on record as ~ 45%. Moreover, the “Brain Methionine % Control” value in series [4] turned out to be 1835 % Control. Moreover, the “Heart Methionine % Control” value in series [4] was found to be 1316 % Control. In addition, the “Liver Methionine % Control” value in series [4] amounted to 2314 % Control. In addition, the “Plasma Methionine % Control” value in series [4] was 1557 % Control. For the same molecule, the “differentially expressed liver genes” value turned out to be 1638 in series [5] (high dose (30 mg/kg BID)) and 2080 in series [5] (low dose (3 mg/kg BID)). For the same molecule, the Ki in series [6] worked out at 32.4 µM; in series [7] it was 2.2 µM; in series [8] it was 30.3 µM; in series [9], 10.2 µM; in series [10], 50.6 µM; in series [11] it was 6 µM. Also, the “Pharmacological mode of action” value in series [12] is given as “Antagonist”. Moreover, the half-inhibitory concentration (IC50) in [13] was 33.1 µM; in [14], above 50 µM. Besides, the “brain penetrance Kpu,u” value in series [15] is 0.03 ± 0.01.
